# pIC50: −log10 of the molar value.
# Target: T1, KCNT1 (KNa1.1, Slack) (Homo sapiens, UniProt Q5JUK3)
# T1 construct: expressed in transfected cells; host or cells: HEK-TREX (tetracycline-inducible HEK cell line)
# T1 sequence (Q5JUK3 1-1230): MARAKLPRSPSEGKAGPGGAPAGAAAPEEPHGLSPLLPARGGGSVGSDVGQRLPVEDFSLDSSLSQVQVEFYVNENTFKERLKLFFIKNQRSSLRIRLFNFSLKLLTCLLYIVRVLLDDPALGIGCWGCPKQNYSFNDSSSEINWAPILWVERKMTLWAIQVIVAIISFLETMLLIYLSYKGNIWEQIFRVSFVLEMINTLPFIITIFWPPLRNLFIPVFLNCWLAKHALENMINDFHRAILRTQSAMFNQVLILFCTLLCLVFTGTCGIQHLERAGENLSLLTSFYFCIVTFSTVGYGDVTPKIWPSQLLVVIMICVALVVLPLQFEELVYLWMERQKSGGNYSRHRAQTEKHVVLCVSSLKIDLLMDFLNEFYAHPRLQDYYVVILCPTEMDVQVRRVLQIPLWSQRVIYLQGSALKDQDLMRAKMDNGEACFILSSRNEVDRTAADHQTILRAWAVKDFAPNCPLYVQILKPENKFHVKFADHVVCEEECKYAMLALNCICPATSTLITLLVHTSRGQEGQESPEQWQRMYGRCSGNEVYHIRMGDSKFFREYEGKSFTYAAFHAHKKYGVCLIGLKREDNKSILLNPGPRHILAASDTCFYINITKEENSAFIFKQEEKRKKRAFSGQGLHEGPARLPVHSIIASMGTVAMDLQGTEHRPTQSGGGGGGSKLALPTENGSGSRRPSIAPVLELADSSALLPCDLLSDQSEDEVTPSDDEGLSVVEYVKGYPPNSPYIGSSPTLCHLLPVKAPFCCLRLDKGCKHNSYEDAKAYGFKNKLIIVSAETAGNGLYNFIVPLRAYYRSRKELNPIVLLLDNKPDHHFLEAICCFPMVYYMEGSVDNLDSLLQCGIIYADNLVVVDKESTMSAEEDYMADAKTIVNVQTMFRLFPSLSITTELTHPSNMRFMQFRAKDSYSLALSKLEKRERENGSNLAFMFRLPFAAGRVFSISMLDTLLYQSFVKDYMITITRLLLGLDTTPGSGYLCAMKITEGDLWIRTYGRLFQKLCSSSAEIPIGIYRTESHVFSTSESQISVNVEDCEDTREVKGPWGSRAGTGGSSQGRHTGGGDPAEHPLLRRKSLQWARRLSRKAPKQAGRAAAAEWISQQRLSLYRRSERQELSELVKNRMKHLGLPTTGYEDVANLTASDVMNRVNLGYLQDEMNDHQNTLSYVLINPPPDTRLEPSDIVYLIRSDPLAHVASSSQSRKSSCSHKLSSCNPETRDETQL
# Assay: KCNT1 patch clamp assay (SyncroPatch 384PE, HEK-TREX inducible cell line)
# Type: cell-based
# Details: wild-type KCNT1, HEK-TREX cells, automated perforated patch clamp, step to 0 mV, room temperature; read-out: KCNT1-WT IC50
# Protocol: Inhibition of KCNT1 (KNa1.1, Slack) was evaluated using a tetracycline inducible cell line (HEK-TREX). Currents were recorded using the SyncroPatch 384PE automated, patch clamp system. Pulse generation and data collection were performed with PatchController384 V1.3.0 and DataController384 V1.2.1 (Nanion Technologies). The access resistance and apparent membrane capacitance were estimated using built-in protocols. Current were recorded in perforated patch mode (10 μM escin) from a population of cells. The cells were lifted, triturated, and resuspended at 800,000 cells/ml. The cells were allowed to recover in the cell hotel prior to experimentation. Currents were recorded at room temperature. The external solution contained the following (in mM): NaCl 105, NMDG 40, KCl 4, MgCl2 1, CaCl2) 5 and HEPES 10 (pH=7.4, Osmolarity ˜300 mOsm). The extracellular solution was used as the wash, reference and compound delivery solution. The internal solution contained the following (in mM): NaCl 70, KF 70, KCl 10, EGTA 5, HEPES 5 and Escin 0.01 (pH=7.2, Osmolarity ˜295 mOsm). Escin is made at a 5 mM stock in water, aliquoted, and stored at −20° C. The compound plate was created at 2× concentrated in the extracellular solution. The compound was diluted to 1:2 when added to the recording well. The amount of DMSO in the extracellular solution was held constant at the level used for the highest tested concentration. A holding potential of −80 mV with a 100 ms step to 0 mV was used. Mean current was measured during the step to 0 mV. […] The average mean current from 3 sweeps was calculated and the % inhibition of each compound was calculated. The % Inhibition as a function of the compound concentration was fit with a Hill equation to derive IC50, slope, min and max parameters. If KCNT1 inhibition was less than 50% at the highest tested concentration or if an IC50 could not be calculated, then a percent inhibition was reported in place of the IC50.
# In this table, “A” indicates IC50 of less than or equal to 1 μM; “B” indicates inhibition of between 1 μM to 20 μM; and “C” indicates inhibition of greater than or equal to 20 μM.
row,Compound,pIC50
1,"CC(C)c1cc(C(=O)N[C@@H](C)c2nc(-c3ccnc(C4CC4)c3)no2)n(C)n1 [Compound 1, (S)—N-(1-(3-(2-cyclopropylpyridin-4-yl)-1,2,4-oxadiazol-5-yl)ethyl)-3-isopropyl-1-methyl-1H-pyrazole-5-carboxamide]",≥ 6.00
2,"CC(C)n1nccc1C(=O)N[C@@H](C)c1nc(-c2ccnc(C3CC3)c2)no1 [Compound 2, (S)—N-(1-(3-(2-cyclopropylpyridin-4-yl)-1,2,4-oxadiazol-5-yl)ethyl)-1-isopropyl-1H-pyrazole-5-carboxamide]",≥ 6.00
3,"C[C@H](NC(=O)c1cc(C2CC2)nn1C)c1nc(-c2ccnc(C3CC3)c2)no1 [Compound 3, (S)-3-cyclopropyl-N-(1-(3-(2-cyclopropylpyridin-4-yl)-1,2,4-oxadiazol-5-yl)ethyl)-1-methyl-1H-pyrazole-5-carboxamide]",≥ 6.00
4,"C[C@H](NC(=O)c1cc(C(C)(C)C)nn1C)c1nc(-c2ccnc(C3CC3)c2)no1 [Compound 4, (S)-3-(tert-butyl)-N-(1-(3-(2-cyclopropylpyridin-4-yl)-1,2,4-oxadiazol-5-yl)ethyl)-1-methyl-1H-pyrazole-5-carboxamide]",≥ 6.00
5,"CCn1nccc1C(=O)N[C@@H](C)c1nc(-c2ccnc(C3CC3)c2)no1 [Compound 5, (S)—N-(1-(3-(2-cyclopropylpyridin-4-yl)-1,2,4-oxadiazol-5-yl)ethyl)-1-ethyl-1H-pyrazole-5-carboxamide]",≥ 6.00
6,"C[C@H](NC(=O)c1ccnn1C(C)(C)C)c1nc(-c2ccnc(C3CC3)c2)no1 [Compound 6, (S)-1-(tert-butyl)-N-(1-(3-(2-cyclopropylpyridin-4-yl)-1,2,4-oxadiazol-5-yl)ethyl)-1H-pyrazole-5-carboxamide]",≥ 6.00
7,"C[C@H](NC(=O)c1ccnn1C1CCC1)c1nc(-c2ccnc(C3CCC3)c2)no1 [Compound 7, (S)-1-cyclobutyl-N-(1-(3-(2-cyclobutylpyridin-4-yl)-1,2,4-oxadiazol-5-yl)ethyl)-1H-pyrazole-5-carboxamide]",4.70 to 6.00
8,"C[C@H](NC(=O)c1cc(C(F)F)nn1C)c1nc(-c2ccnc(C3CCC3)c2)no1 [Compound 8, (S)—N-(1-(3-(2-cyclobutylpyridin-4-yl)-1,2,4-oxadiazol-5-yl)ethyl)-3-(difluoromethyl)-1-methyl-1H-pyrazole-5-carboxamide]",≥ 6.00
